According to publication PMC11630551, “In silico screening of protein-binding peptides with an application to developing peptide inhibitors against antibiotic resistance” (PNAS Nexus, 2024):
Entries after “also recorded” stand apart in the source; their conditions may differ.

Tested on: not listed separately
Experiment: Solubility of synthesized peptides
Settings: excluded from assay experiments

Sequence | solubility
ESYHGMLACVIAG [TF10] | poor solubility

Biological target: T1, TEM-1 β-lactamase (Escherichia coli, UniProt P62593)
T1 construct: host or cells: E. coli BL21 (DE3)
T1 sequence (P62593 24-286 limits assumed): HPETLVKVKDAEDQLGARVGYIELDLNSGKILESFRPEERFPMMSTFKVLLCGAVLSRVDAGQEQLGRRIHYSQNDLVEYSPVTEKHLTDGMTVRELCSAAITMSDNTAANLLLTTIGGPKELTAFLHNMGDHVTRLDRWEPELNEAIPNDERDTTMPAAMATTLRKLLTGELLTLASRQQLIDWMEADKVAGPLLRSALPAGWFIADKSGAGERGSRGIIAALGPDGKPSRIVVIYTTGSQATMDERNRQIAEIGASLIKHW
Experiment: not given
Type: biochemical
Settings: not given

Sequence | change of β-lactamase activity of TEM-1 at peptide screening concentration
AKYFEQASYG [TF6] | increased the β-lactamase activity; also recorded: did not exhibit significant inhibition
ARDATCRRWG [TF3] | increased the β-lactamase activity; also recorded: did not exhibit significant inhibition
ASRAEVDAAAKGAA [TF8] | did not exhibit significant inhibition
EYGDAWHDAG [TF4] | did not exhibit significant inhibition
RDSVGAASVN [TF9] | did not exhibit significant inhibition
